From BindingDB's records for PubMed 10779381 (University of Ferrara, 2000)
Where “and” joins values, the source holds several entries; their conditions need not be identical. Equal values may be shown once.

Key:
Adenosine receptor A3 = target: T1, Adenosine receptor A3 (Homo sapiens, UniProt P0DMS8)
T1 sequence (P0DMS8 whole entry): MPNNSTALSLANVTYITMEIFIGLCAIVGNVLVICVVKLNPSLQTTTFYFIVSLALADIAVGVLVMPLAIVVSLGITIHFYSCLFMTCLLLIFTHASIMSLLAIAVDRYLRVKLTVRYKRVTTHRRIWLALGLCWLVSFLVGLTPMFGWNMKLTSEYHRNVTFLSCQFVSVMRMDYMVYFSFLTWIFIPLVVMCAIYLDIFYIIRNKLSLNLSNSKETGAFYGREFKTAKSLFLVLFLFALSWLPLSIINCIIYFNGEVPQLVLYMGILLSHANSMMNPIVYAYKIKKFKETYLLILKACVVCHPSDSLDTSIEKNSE

Adenosine receptor A1 = target: T2, Adenosine receptor A1 (Rattus norvegicus, UniProt P25099)
T2 sequence (P25099 whole entry): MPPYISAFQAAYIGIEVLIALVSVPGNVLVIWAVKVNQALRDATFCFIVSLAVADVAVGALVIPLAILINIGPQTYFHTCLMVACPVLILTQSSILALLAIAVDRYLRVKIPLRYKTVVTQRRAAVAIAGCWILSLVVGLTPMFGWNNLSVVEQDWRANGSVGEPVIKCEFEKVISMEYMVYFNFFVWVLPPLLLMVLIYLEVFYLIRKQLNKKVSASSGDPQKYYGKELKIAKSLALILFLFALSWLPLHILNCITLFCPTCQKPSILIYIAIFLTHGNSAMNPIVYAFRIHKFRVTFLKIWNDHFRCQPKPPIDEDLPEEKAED

| SMILES | Ki (Adenosine receptor A3) | Ki (Adenosine receptor A1) |
| --- | --- | --- |
| Nc1nc2ccc(Cl)cc2c2nc(-c3ccco3)nn12 | 90 nM and 65 nM | – |
| Nc1nc2c(cnn2CCc2ccccc2)c2nc(-c3ccco3)nn12 | > 10000 nM | – |
| CCCn1cc2c(nc(NC(=O)Nc3cccc(Cl)c3)n3nc(-c4ccco4)nc23)n1 [1-(3-chlorophenyl)-3-[2-(furan-2-yl)-8-propyl-8H-pyrazolo[4,3-e][1,2,4]triazolo[1,5-c]pyrimidin-5-yl]urea] | 0.48 nM and 0.98 nM | – |
| CCCn1cc2c(nc(NC(=O)Nc3ccc(OC)cc3)n3nc(-c4ccco4)nc23)n1 [J1.251.181G] | – | > 10000 nM |
